Experimental data published in patent US20140005164A1, “WNT PATHWAY ANTAGONISTS” (Siena Biotech S.p.A., priority 2011, published 2014).
pIC50: −log10 of the molar value.

Test system: Wnt/β-catenin pathway
Experiment: Wnt reporter assay (TCF-Luciferase, Firefly) in DBTRG-05MG cells
Format: cell-based
Settings: Homo sapiens, 24 h, read-out: IC50 value in the reporter assay
Description: Three copies of a 4×TCF responsive elements were cloned into the pcDNA3.1/Zeo(+) vector (Invitrogen) after deletion of the constitutive CMV promoter and the insertion of the Firefly Luciferase from Promega (phFL-TK) to measure the activity of the Wnt/β-catenin pathway. The resulting plasmid was sequenced for quality control.
Cells were grown in 20 μg/ml Zeocin and 20 μg/ml Zeocin plus 30 μg/ml Hygromicin respectively. The cells were plated at a density of 6500 cells/well in poly-D-lysine pre-treated 96 well-plates.
36 hours after plating cells were incubated with 8-points dilutions compound (0.6% DMSO (v/v)). Each compound was tested in triplicate in single plate. Luciferase detection was done with Dual-Luciferase Reporter Assay System (Promega). 24 hours after compound addition, media was removed and 30 μl of 1× lysis buffer was added to each well for 30 minutes. To each well 45 μl of Dual-Glo Luciferase reagent (Promega) were added and after 1 second delay Luciferase was detected for 1 second using Mithras LB940 instrument. After Firefly luciferase quantification 45 μl of Dual Stop & Glo reagent (Promega) were added to each well and […] Renilla was detected using the same parameters described before.
Data were expressed as % of control for Firefly and Renilla luciferase independently; values were calculated using XLFit version 4.2, with a four parameters sigmoid function (XLFit model 205).

Structure (SMILES) | pIC50
CN(C)CCN(C)c1ccc2c(n1)n(C[C@H]1CC[C@H](C(=O)Nc3ccncc3)CC1)c(=O)n2C [Example 5, Trans-4-{5-[(2-Dimethylamino-ethyl)-methyl-amino]-1-methyl-2-oxo-1,2-dihydro-imidazo[4,5-b]pyridin-3-ylmethyl}-cyclohexanecarboxylic acid pyridin-4-ylamide] | 4.64 to 7.46
COCCN(C)c1ncc2c(n1)n(C[C@H]1CC[C@H](C(=O)Nc3ccncc3)CC1)c(=O)n2C [Example 8, Trans-4-{2-[(2-Methoxy-ethyl)-methyl-amino]-7-methyl-8-oxo-7,8-dihydro-purin-9-ylmethyl}-cyclohexanecarboxylic acid pyridine-4-ylamide] | 4.64 to 7.46
COc1cccc(COc2ccc3c(n2)n(C[C@H]2CC[C@H](C(=O)Nc4ccncc4)CC2)c(=O)n3C)c1 [Example 10, Trans-4-[5-(3-Methoxy-benzyloxy)-1-methyl-2-oxo-1,2-dihydro-imidazo[4,5-b]pyridin-3-ylmethyl]-cyclohexane carboxylic acid pyridin-4-ylamide] | 4.64 to 7.46

Same assay, conditions: Homo sapiens, TCF-Luciferase (Firefly) read out, 24 hours after compound addition, range given with mixed units nM and μM, read-out: IC50 value in the reporter assay

Structure (SMILES) | IC50
COc1ccc2c(c1)n(C[C@H]1CC[C@H](C(=O)N3CCN(c4ncccn4)CC3)CC1)c(=O)n2C [Example 2, 5-Methoxy-1-methyl-3-[trans-4-(4-pyrimidin-2-yl-piperazine-1-carbonyl)-cyclohexylmethyl]-1,3-dihydro-benzoimidazol-2-one] | 35 to 23000 nM
CC(=O)N1CCN(C(=O)[C@H]2CC[C@H](Cn3c(=O)n(C)c4ccc(Br)nc43)CC2)CC1 [Example 3, 3-[trans 4-(4-Acetyl-piperazine-1-carbonyl)cyclohexylmethyl]-5-bromo-1-methyl-1,3-dihydro-imidazo[4,5-b]pyridin-2-one] | 35 to 23000 nM
COC/C=C/c1ccc2c(n1)n(C[C@H]1CC[C@H](C(=O)N3CCN(C(C)=O)CC3)CC1)c(=O)n2C [Example 4, 3-[Trans-4-(4-Acetyl-piperazine-1-carbonyl)-cyclohexylmethyl]-5-((E)-3-methoxy-propenyl)-1-methyl-1,3-dihydro-imidazo[4,5-b]pyridin-2-one] | 35 to 23000 nM
COc1ccc(COc2ccc3c(c2)n(C[C@H]2CC[C@H](C(=O)Nc4ccncc4)CC2)c(=O)n3C)cc1 [Example 6, Trans-4-[6-(4-Methoxy-benzyloxy)-3-methyl-2-oxo-2,3-dihydro-benzoimidazol-1-ylmethyl]-cyclohexanecarboxylic acid pyridin-4-ylamide] | 35 to 23000 nM
CCC(=O)CN1CCN(C(=O)[C@H]2CC[C@H](Cn3c(=O)n(C)c4ccc(OC)cc43)CC2)CC1=O [Example 7, 5-Methoxy-1-methyl-3-{trans-4-[3-oxo-4-(2-oxo-butyl)-piperazine-1-carbonyl]-cyclohexylmethyl}-1,3-dihydro-benzoimidazol-2-one] | 35 to 23000 nM
Cn1c(=O)n(C[C@H]2CC[C@H](C(=O)Nc3ccnnc3)CC2)c2[nH]c(=O)ccc21 [Example 9, Trans-4-(1-Methyl-2,5-dioxo-1,2,4,5-tetrahydro-imidazo[4,5-b]pyridin-3-ylmethyl)-cyclohexanecarboxylic acid pyridazin-4-ylamide] | 35 to 23000 nM
COc1ccc2c(c1)n(C[C@H]1CC[C@H](c3nnc(-c4cn(C)nc4C(F)(F)F)o3)CC1)c(=O)n2C [Example 11, 5-Methoxy-1-methyl-3-{trans 4-[5-(1-methyl-3-trifluoromethyl-1H-pyrazol-4-yl)-[1,3,4]oxadiazol-2-yl]-cyclohexylmethyl}-1,3-dihydro-benzoimidazol-2-one] | 35 to 23000 nM
COc1ccc2c(c1)n(C[C@H]1CC[C@H](c3cc(-c4ccncc4)n[nH]3)CC1)c(=O)n2C [Example 13, 5-Methoxy-1-methyl-3-[trans-4-(5-pyridin-4-yl-2H-pyrazol-3-yl)-cyclohexylmethyl]-1,3-dihydro-benzoimidazol-2-one] | 35 to 23000 nM
COCCNc1ccc2c(c1)n(C[C@H]1CC[C@H](C(=O)N3CCN(C(C)=O)CC3)CC1)c(=O)n2C [Example 15, 3-[trans-4-(4-Acetyl-piperazine-1-carbonyl)-cyclohexylmethyl]-5-(2-methoxy-ethylamino)-1-methyl-1,3-dihydro-benzoimidazol-2-one] | 35 to 23000 nM
CC(=O)N1CCN(C(=O)[C@H]2CC[C@H](Cn3c(=O)n(C)c4ccc(O)cc43)CC2)CC1 [Example 16, 3-[trans-4-(4-Acetyl-piperazine-1-carbonyl)-cyclohexylmethyl]-5-hydroxy-1-methyl-1,3-dihydro-benzoimidazol-2-one] | 35 to 23000 nM
CCOc1ccc2c(c1)n(C[C@H]1CC[C@H](C(=O)Nc3ccncc3)CC1)c(=O)n2C [Example 17] | 35 to 23000 nM
COc1ccc(-c2nc([C@H]3CC[C@H](Cn4c(=O)n(C)c5ccc(OC)cc54)CC3)no2)cc1 [Example 18, 5-Methoxy-3-{trans-4-[5-(4-methoxy-phenyl)[1,2,4]oxadiazol-3-yl]-cyclohexylmethyl}-1-methyl-1,3-dihydro-benzoimidazol-2-one] | 35 to 23000 nM
COc1ccc2c(c1)n(C[C@H]1CC[C@H](c3c[nH]c(NC(C)=O)n3)CC1)c(=O)n2C [Example 19, N-{4-[trans-4-(6-Methoxy-3-methyl-2-oxo-2,3-dihydro-benzoimidazol-1-ylmethyl)-cyclohexyl]-1H-imidazol-2-yl}-acetamide] | 35 to 23000 nM
COc1ccc2c(c1)n(C[C@H]1CC[C@H](C(=O)N3CCN(c4cncnc4)CC3)CC1)c(=O)n2C [Example 20, 5-Methoxy-1-methyl-3-[trans-4-(4-pyrimidin-5-yl-piperazine-1-carbonyl)-cyclohexylmethyl]-1,3-dihydro-benzoimidazol-2-one] | 35 to 23000 nM
Cn1c(=O)n(C[C@H]2CC[C@H](C(=O)N3CCN(c4ncccn4)CC3)CC2)c2c(Cl)cccc21 [Example 21] | 35 to 23000 nM
Cn1c(=O)n(C[C@H]2CC[C@H](C(=O)N3CCN(c4nccs4)CC3)CC2)c2c(Cl)cccc21 [Example 23] | 35 to 23000 nM
Cn1c(=O)n(C[C@H]2CC[C@H](C(=O)N3CCN(c4nccs4)CC3)CC2)c2cc(C(F)(F)F)ccc21 [Example 24] | 35 to 23000 nM
Cn1c(=O)n(C[C@H]2CC[C@H](C(=O)N3CCN(c4ncccn4)CC3)CC2)c2cc(C(F)(F)F)ccc21 [Example 25] | 35 to 23000 nM
COc1ccc2c(n1)n(C[C@H]1CC[C@H](C(=O)N3CCN(c4ncccn4)CC3)CC1)c(=O)n2C [Example 26] | 35 to 23000 nM
COc1ccc2c(c1)n(C[C@H]1CC[C@H](C(=O)N3CCN(c4nccs4)CC3)CC1)c(=O)n2C [Example 27] | 35 to 23000 nM
Cn1c(=O)n(C[C@H]2CC[C@H](C(=O)Nc3ccncc3)CC2)c2c(Cl)cccc21 [Example 28] | 35 to 23000 nM

Structure (SMILES) | IC50
COc1ccc2c(c1)n(C[C@H]1CC[C@H](C(=O)Nc3ccncc3C)CC1)c(=O)n2C [Example 30] | 35 to 23000 nM
COc1ccc2c(c1)n(C[C@H]1CC[C@H](C(=O)Nc3ccc(OC)nc3)CC1)c(=O)n2C [Example 31] | 35 to 23000 nM
COc1ccc2c(c1)n(C[C@H]1CC[C@H](C(=O)Nc3ccnc(Cl)c3)CC1)c(=O)n2C [Example 32] | 35 to 23000 nM
COc1ccc2c(c1)n(C[C@H]1CC[C@H](C(=O)Nc3ccnc(C)c3)CC1)c(=O)n2C [Example 33] | 35 to 23000 nM
COc1ccc2c(c1)n(C[C@H]1CC[C@H](C(=O)Nc3cccc(C)n3)CC1)c(=O)n2C [Example 34] | 35 to 23000 nM
COc1ccc2c(c1)n(C[C@H]1CC[C@H](C(=O)N3CCC(F)(F)CC3)CC1)c(=O)n2C [Example 35] | 35 to 23000 nM
COCCOc1cc(NC(=O)[C@H]2CC[C@H](Cn3c(=O)n(C)c4ccc(OC)cc43)CC2)ccn1 [Example 36] | 35 to 23000 nM
COc1ccc2c(c1)n(C[C@H]1CC[C@H](C(=O)Nc3cccnc3)CC1)c(=O)n2C [Example 37] | 35 to 23000 nM
COc1ccc2c(c1)n(C[C@H]1CC[C@H](C(=O)Nc3ccncc3F)CC1)c(=O)n2C [Example 38] | 35 to 23000 nM
Cc1cc(NC(=O)[C@H]2CC[C@H](Cn3c(=O)n(C)c4ccc(Cl)cc43)CC2)ccn1 [Example 39] | 35 to 23000 nM
COCCOc1cc(NC(=O)[C@H]2CC[C@H](Cn3c(=O)n(C)c4ccc(Cl)cc43)CC2)ccn1 [Example 40] | 35 to 23000 nM
Cn1c(=O)n(C[C@H]2CC[C@H](C(=O)Nc3ccnc(N4CCOCC4)c3)CC2)c2cc(Cl)ccc21 [Example 41] | 35 to 23000 nM
COCCOc1cc(NC(=O)[C@H]2CC[C@H](Cn3c(=O)n(C)c4c(Cl)cccc43)CC2)ccn1 [Example 42] | 35 to 23000 nM
Cn1c(=O)n(C[C@H]2CC[C@H](C(=O)Nc3ccnc(N4CCOCC4)c3)CC2)c2cccc(Cl)c21 [Example 43] | 35 to 23000 nM
COc1ccc2c(c1)n(C[C@H]1CC[C@H](C(=O)N3CCC(F)(F)C3)CC1)c(=O)n2C [Example 44] | 35 to 23000 nM
COCCN(C)c1ncccc1NC(=O)[C@H]1CC[C@H](Cn2c(=O)n(C)c3ccc(OC)cc32)CC1 [Example 45] | 35 to 23000 nM
COc1cc2c(cc1Cl)n(C[C@H]1CC[C@H](C(=O)N3CCN(c4ncccn4)CC3)CC1)c(=O)n2C [Example 46] | 35 to 23000 nM
Cn1c(=O)n(C[C@H]2CC[C@H](C(=O)N3CCN(c4ncccn4)CC3)CC2)c2cc(Cl)ccc21 [Example 47] | 35 to 23000 nM
Cc1cc(NC(=O)[C@H]2CC[C@H](Cn3c(=O)n(C)c4cc(Cl)ccc43)CC2)ccn1 [Example 48] | 35 to 23000 nM
Cc1cc(NC(=O)[C@H]2CC[C@H](Cn3c(=O)n(C)c4c(Cl)cccc43)CC2)ccn1 [Example 49] | 35 to 23000 nM
